Test results: ChEMBL document CHEMBL4382214, “Antileishmanial activity of new hybrid tetrahydroquinoline and quinoline derivatives with phosphorus substituents” (Eur J Med Chem, 2019)
The source made the active and inactive calls. The rule behind the calls is not given here.

Columns and labels:
[1] = system: Leishmania infantum; assay: Leishmanicidal activity against promastigote stage of iRFP expressing Leishmania infantum BCN150 assessed as decrease in parasite viability after 72 hrs by fluorescence assay; assay type: functional, organism-based; details: BCN150, 72 h
[2] = target: T1, DNA topoisomerase 1 (Homo sapiens, UniProt P11387); assay: Inhibition of human Top1B expressed in Top1B deficient Saccharomyces cerevisiae EKY3 assessed as decrease in relaxation of supercoiled pSK DNA preincubated for 15 mins followed by DNA addition and measured after 5 mins by agarose gel electrophoresis
T1 sequence (P11387 whole entry): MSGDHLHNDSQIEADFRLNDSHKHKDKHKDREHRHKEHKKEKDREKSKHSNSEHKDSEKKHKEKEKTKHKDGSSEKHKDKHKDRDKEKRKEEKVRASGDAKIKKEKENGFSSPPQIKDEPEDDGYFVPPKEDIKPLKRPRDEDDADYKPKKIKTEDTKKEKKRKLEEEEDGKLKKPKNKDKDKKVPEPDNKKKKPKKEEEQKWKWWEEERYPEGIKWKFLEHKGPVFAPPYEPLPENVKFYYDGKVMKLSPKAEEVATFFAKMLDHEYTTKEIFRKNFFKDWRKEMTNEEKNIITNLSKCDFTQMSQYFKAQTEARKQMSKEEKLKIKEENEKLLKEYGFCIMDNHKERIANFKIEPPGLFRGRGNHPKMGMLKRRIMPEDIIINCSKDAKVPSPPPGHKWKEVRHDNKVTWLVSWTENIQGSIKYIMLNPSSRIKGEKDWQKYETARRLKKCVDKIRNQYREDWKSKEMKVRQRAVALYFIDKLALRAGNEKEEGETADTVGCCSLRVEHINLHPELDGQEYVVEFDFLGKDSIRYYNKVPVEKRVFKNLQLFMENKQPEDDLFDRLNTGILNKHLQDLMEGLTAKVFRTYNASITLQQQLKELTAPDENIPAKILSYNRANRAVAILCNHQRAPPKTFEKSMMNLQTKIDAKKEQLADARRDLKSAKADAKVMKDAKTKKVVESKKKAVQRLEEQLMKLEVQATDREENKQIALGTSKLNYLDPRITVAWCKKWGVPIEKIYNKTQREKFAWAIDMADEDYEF

[3] = system: Leishmania infantum; assay: Leishmanicidal activity against amastigote stage of iRFP expressing Leishmania infantum BCN150 infected in BALB/c mouse splenocytes assessed as decrease in parasite viability by fluorescence assay; assay type: functional, organism-based
[4] = system: Leishmania donovani; assay: Inhibition of Leishmania donovani Top1B expressed in Top1B deficient Saccharomyces cerevisiae EKY3 assessed as decrease in relaxation of supercoiled pSK DNA preincubated for 15 mins followed by DNA addition and measured after 2 to 16 mins by agarose gel electrophoresis
[5] = Inhibition of Leishmania donovani Top1B expressed in Top1B deficient Saccharomyces cerevisiae EKY3 assessed as decrease in relaxation of supercoiled pSK DNA preincubated for 15 mins followed by DNA addition and measured after 5 mins by agarose gel electrophoresis
[6] = Cytotoxicity against BALB/c mouse splenocytes assessed as reduction in cell viability by alamar blue assay; assay type: cell-based, Splenocyte
[7] = system: Leishmania donovani; assay: Inhibition of Leishmania donovani Top1B expressed in Top1B deficient Saccharomyces cerevisiae EKY3 assessed as decrease in relaxation of supercoiled pSK DNA preincubated for 15 mins followed by DNA addition and measured after 2 to 8 mins by agarose gel electrophoresis
[8] = Selectivity index, ratio of CC50 for BALB/c mouse splenocytes to EC50 for amastigote stage of iRFP expressing Leishmania infantum BCN150 infected in BALB/c mouse splenocytes; assay type: toxicity, cell-based; details: read-out: Ratio CC50/EC50
[9] = target: T2, DNA topoisomerase 1 (Homo sapiens) (UniProt P11387); assay: Inhibition of human Top1B expressed in Top1B deficient Saccharomyces cerevisiae EKY3 assessed as decrease in relaxation of supercoiled pSK DNA preincubated for 15 mins followed by DNA addition and measured after 16 mins by agarose gel electrophoresis
T2 sequence (whole entry): T1 sequence (P11387 whole entry)

[10] = target: T2, DNA topoisomerase 1 (Homo sapiens); assay: Inhibition of human Top1B expressed in Top1B deficient Saccharomyces cerevisiae EKY3 assessed as decrease in relaxation of supercoiled pSK DNA preincubated for 15 mins followed by DNA addition and measured after 2 to 8 mins by agarose gel electrophoresis
[11] = system: Leishmania donovani; assay: Inhibition of Leishmania donovani Top1B expressed in Top1B deficient Saccharomyces cerevisiae EKY3 assessed as decrease in relaxation of supercoiled pSK DNA preincubated for 15 mins followed by DNA addition and measured after 16 mins by agarose gel electrophoresis
[12] = system: Leishmania donovani; assay: Inhibition of Leishmania donovani Top1B expressed in Top1B deficient Saccharomyces cerevisiae EKY3 assessed as decrease in relaxation of supercoiled pSK DNA preincubated for 15 mins followed by DNA addition and measured after 8 to 16 mins by agarose gel electrophoresis
[13] = target: T2, DNA topoisomerase 1 (Homo sapiens); assay: Inhibition of human Top1B expressed in Top1B deficient Saccharomyces cerevisiae EKY3 assessed as decrease in relaxation of supercoiled pSK DNA preincubated for 15 mins followed by DNA addition and measured after 2 to 4 mins by agarose gel electrophoresis
[14] = target: T2, DNA topoisomerase 1 (Homo sapiens); assay: Inhibition of human Top1B expressed in Top1B deficient Saccharomyces cerevisiae EKY3 assessed as decrease in relaxation of supercoiled pSK DNA preincubated for 15 mins followed by DNA addition and measured after 8 to 16 mins by agarose gel electrophoresis
[15] = system: Leishmania donovani; assay: Inhibition of Leishmania donovani Top1B expressed in Top1B deficient Saccharomyces cerevisiae EKY3 assessed as decrease in relaxation of supercoiled pSK DNA preincubated for 15 mins followed by DNA addition and measured after 2 to 4 mins by agarose gel electrophoresis
[16] = target: T2, DNA topoisomerase 1 (Homo sapiens); assay: Inhibition of human Top1B expressed in Top1B deficient Saccharomyces cerevisiae EKY3 assessed as decrease in relaxation of supercoiled pSK DNA preincubated for 15 mins followed by DNA addition and measured after 2 to 16 mins by agarose gel electrophoresis
[17] = system: Leishmania donovani; assay: Inhibition of Leishmania donovani Top1B expressed in Top1B deficient Saccharomyces cerevisiae EKY3 assessed as decrease in relaxation of supercoiled pSK DNA preincubated for 15 mins followed by DNA addition and measured after 4 to 16 mins by agarose gel electrophoresis
[18] = system: Leishmania donovani; assay: Inhibition of Leishmania donovani Top1B expressed in Top1B deficient Saccharomyces cerevisiae EKY3 assessed as decrease in relaxation of supercoiled pSK DNA preincubated for 15 mins followed by DNA addition and measured after 2 mins by agarose gel electrophoresis

| SMILES | EC50 [1] | IC50 [2] | EC50 [3] | inhibition [4] | IC50 [5] | CC50 [6] | inhibition [7] | IC50 ([2]; read-out: IC50) | selectivity ratio [8] | IC50 ([5]; read-out: IC50) | inhibition [9] | inhibition [10] | inhibition [11] | inhibition [12] | inhibition [13] | inhibition [14] | inhibition [15] | inhibition [16] | inhibition [17] | inhibition [18] |
| --- | --- | --- | --- | --- | --- | --- | --- | --- | --- | --- | --- | --- | --- | --- | --- | --- | --- | --- | --- | --- |
| Fc1ccc(-c2cc(-c3ccc(F)cc3)c3cccc(P(=S)(c4ccccc4)c4ccccc4)c3n2)cc1 | 11 µM | Not Active | > 10 µM | inactive | Not Active | 92.1 µM |  |  |  |  |  |  |  |  |  |  |  |  |  |  |
| O=P(c1ccccc1)(c1ccccc1)c1cccc2c(-c3ccc(F)cc3)cc(-c3ccc(F)c(F)c3)nc12 | 2.33 µM |  | 2.15 µM |  |  | 23.9 µM | Active | 69.6 µM | 11.1 | 48.1 µM | inactive | Active | inactive |  |  |  |  |  |  |  |
| Fc1ccc(-c2cc(-c3ccc(C(F)(F)F)cc3)nc3c(P(=S)(c4ccccc4)c4ccccc4)cccc23)cc1 | 8.83 µM |  | > 10 µM |  |  | 89.7 µM |  | 27.4 µM |  | 34.3 µM |  |  |  | inactive | Active | inactive | Active |  |  |  |
| O=P(c1ccccc1)(c1ccccc1)c1cccc2c(-c3ccc(F)cc3)cc(-c3ccccc3)nc12 | 6.01 µM | Not Active | 1.39 µM | inactive | Not Active | 71 µM |  |  | 51.1 |  |  |  |  |  |  |  |  |  |  |  |
| O=P(c1ccccc1)(c1ccccc1)c1cccc2c(-c3ccccc3)cc(-c3ccc4ccccc4c3)nc12 | 4.91 µM | Not Active | 4.14 µM | inactive | Not Active | 57.1 µM |  |  | 13.8 |  |  |  |  |  |  |  |  |  |  |  |
| Cc1ccc([C@H]2C[C@@H](c3ccc(F)cc3)Nc3c2cccc3P(c2ccccc2)c2ccccc2)cc1 (relative stereo) | 20.9 µM |  | 1.79 µM | Active |  | 47 µM |  | 44.8 µM | 26.2 | 47.9 µM |  |  |  |  |  |  |  | Active |  |  |
| COc1ccc([C@@H]2C[C@H](c3ccc(C)cc3)c3cccc(P(c4ccccc4)c4ccccc4)c3N2)cc1 (relative stereo) | 27.7 µM |  | 5.96 µM | Active |  | > 50 µM |  | 84.6 µM | > 8.4 | 23.6 µM |  |  |  |  |  |  |  | Active |  |  |
| COc1ccccc1[C@@H]1C[C@H](c2ccccc2)c2cccc(P(=O)(c3ccccc3)c3ccccc3)c2N1 (relative stereo) | 9.39 µM | Not Active | 0.98 µM | inactive | Not Active | 34.2 µM |  |  | 34.9 |  |  |  |  |  |  |  |  |  |  |  |
| COc1ccc([C@@H]2C[C@H](c3ccccc3)c3cccc(P(=S)(c4ccccc4)c4ccccc4)c3N2)cc1 (relative stereo) | 10.7 µM | Not Active | 0.61 µM |  |  | 34.7 µM |  |  | 56.9 | 93.7 µM |  |  |  | inactive |  |  | Active |  |  |  |
| O=[N+]([O-])c1ccc([C@@H]2C[C@H](c3ccccc3)c3cccc(P(=S)(c4ccccc4)c4ccccc4)c3N2)cc1 (relative stereo) | 36.4 µM | Not Active | 2.73 µM | inactive | Not Active | 57 µM |  |  | 20.9 |  |  |  |  |  |  |  |  |  |  |  |
| O=P(c1ccccc1)(c1ccccc1)c1cccc2c1N[C@H](c1ccc(F)c(F)c1)C[C@@H]2c1ccc(F)cc1 (relative stereo) | 6.15 µM | Not Active | 1.46 µM | inactive | Not Active | 63.7 µM |  |  | 43.6 |  |  |  |  |  |  |  |  |  |  |  |
| Cc1ccc([C@H]2C[C@@H](c3ccc(F)cc3)Nc3c2cccc3P(=O)(c2ccccc2)c2ccccc2)cc1 (relative stereo) | 7.1 µM | Not Active | 1.85 µM | inactive | Not Active | 13.8 µM |  |  | 7.47 |  |  |  |  |  |  |  |  |  |  |  |
| Fc1ccc([C@H]2C[C@@H](c3ccccc3)Nc3c2cccc3P(c2ccccc2)c2ccccc2)cc1 (relative stereo) | 3.14 µM |  | 1.75 µM | Active |  | 90.6 µM |  | 42.2 µM | 51.8 | 54.2 µM |  |  |  |  |  |  |  | Active |  |  |
| C[C@@H]1[C@H](O)[C@@H](C)/C=C/C=C/C=C/C=C/C=C/C=C/C=C/[C@H](O[C@@H]2O[C@H](C)[C@@H](O)[C@H](N)[C@@H]2O)C[C@@H]2O[C@](O)(C[C@@H](O)C[C@@H](O)[C@H](O)CC[C@@H](O)C[C@@H](O)CC(=O)O[C@H]1C)C[C@H](O)[C@H]2C(=O)O [AMPHOTERICIN B] | 0.77 µM |  | 0.32 µM |  |  | > 20 µM |  |  | 62.5 |  |  |  |  |  |  |  |  |  |  |  |
| CC[C@@]1(O)C(=O)OCc2c1cc1n(c2=O)Cc2cc3ccccc3nc2-1 [CAMPTOTHECIN] |  | Not Active |  |  | Not Active |  |  |  |  |  |  |  |  |  |  |  |  |  | inactive | Active |
